Measured values published in article PMC4506598, “A small molecular agent YL529 inhibits VEGF-D-induced lymphangiogenesis and metastasis in preclinical tumor models in addition to its known antitumor activities” (BMC Cancer, 2015).
Where two headings read alike, the source gives them in different places.

Tests used:
HLECs [1] = experiment: transwell invasion assay; format: cell-based; settings: Homo sapiens, read-out: inhibition of cell invasion
Experimental: Transwell migration assay was adopted to indicate the anti-metastasis effect of YL529 [26]. Briefly, the transwell were pre-coated with 25 % Matrigel Matrix containing growth factors (BD Biosciences, Bedford, MA) for 30 min at 37 °C. And then the bottom chambers were filled with 600 μl ECM medium and the top chambers were seeded with 4 × 10^4 cells HLECs (100 μl/well). The top and bottom chambers were incubated for another 24 h. Then cells on the top surface of the membrane were scraped with a cotton swab. Cells on the bottom side of the membrane were fixed with 4 % paraformaldehyde and stained with 0.1 % crystal violet (Sigma-Aldrich, USA). An inverted microscope (Zeiss, Axiovert 200, Germany) was used to obtain the images and the invading cells were quantified.
To further measure the effect of YL529 on HLECs invasion, we used a transwell assay and measured the number of HLECs that passed through a membrane barrier following treatment with various concentrations of YL529 [29].

HLECs [2] = experiment: tube formation assay; format: cell-based; settings: Homo sapiens, 6 h
Experimental: The antilymphogenic effects of YL529 were analyzed in vitro using a tube-formation assay in HLECs. Briefly, 96-well plate was pre-incubated with 100 μl per well of Matrigel Matrix at 37 °C for 30 min, HLECs were seeded at a density of 3 × 10^4 cells per well in ECM medium. And after cultured in the presence or absence of designed concentrations of YL529 on Matrigel Matrix at 37 °C another 6 h, tube formation by endothelial cells was evaluated and photographed under an inverse microscope (Zeiss, Axiovert 200, Germany).
To further understand the mechanism of the anti-lymphogenic effect of YL529, the antilymphogenic tube formation effect of YL529 was analyzed with cultured HLECs in vitro [30]. […] In great contrast, HLECs without YL529 treatment spread and aligned with each other and formed a rich meshwork of branching capillary-like tubules within 6 h (Fig. 2c).

HLECs [3] = experiment: CCK-8 cell viability assay; format: cell-based; settings: Homo sapiens, 48 h, read-out: IC50, proliferation of HLECs
Experimental: (§1) Cell viability assays were performed using CCK-8 kit. Briefly, VEGF-D-LL/2 cells, parental LL/2 cells and HLECs were treated with various concentrations of YL529 in 96-well culture plates for 48 h. CCK-8 was added to the cells and the plate was incubated for an additional 2–4 h. The optical density (OD) was then measured at 450 nm using a Spectra MAX M5 microplate spectrophotometer (Molecular Devices, Sunnyvale, CA).
CCK-8 assay was used to evaluate the potential proliferation inhibition effect of HLECs after treated with YL529 or vehicle for 48 h.

[4] = pharmacokinetics after oral administration in mice; format: in vivo, C57 BL/6 mice; settings: for half-life: po
Experimental: C57 BL/6 mice (n = 3 per time point) were administered 150 mg/kg YL529 orally. Blood samples of the mice were collected at appropriate intervals and the plasma concentration of YL529 was analyzed by HPLC (Waters, MA, USA). The pharmacokinetic characteristics and parameters were analyzed using Pharmacokinetic Software of Drug and Statistics (DAS, edited and published by the Mathematical Pharmacology Professional Committee of China, Shanghai, China).

parental LL/2 cells = experiment: CCK-8 cell viability assay; format: cell-based, murine; settings: Mus musculus, 48 h, read-out: IC50, proliferation of parental LL/2 cells
Experimental: Human lymphatic endothelial cells (HLECs) were purchased from the ScienCell™ Research Laboratories and cultured in endothelial cell medium (ECM) containing 5 % fetal bovine serum (FBS), 1 % endothelial cell growth supplement (ECGS), 100 IU/mL penicillin and 100 μg/mL streptomycin. Lewis lung carcinoma LL/2 cells were obtained from American Type Culture Collection (ATCC) and cultured in DMEM containing 10 % FBS, 100 IU/mL penicillin and 100 μg/mL streptomycin. Subcultures were performed with trypsin-EDTA. All cells were incubated in an atmosphere of 5 % CO2 at 37 °C.
as §1
(§2) VEGF-D-LL/2 cells were previously established by transfection with the pcDNA3.1 (+) expression vector containing mouse VEGF-D [31]. Similar to the previous data from our group, this study uses a VEGF-D antibody that detects the mature form of VEGF-D, because the fully mature cleaved form of 21 kD has the greatest affinity for the receptors, and can bind and activate not only VEGFR-2 but also VEGFR-3.

[5] = high-dose toxicity, organ parameters in rats; format: in vivo; settings: SD rats; for Heart index / Kidney index / Liver index / Lung index / Spleen index: oral 6000 mg/kg
VEGF-D-LL/2 tumors [6] = experiment: VEGF-D-LL/2 syngeneic s.c. tumor model; format: in vivo
Experimental: (§3) Seven-week-old female C57 BL/6 mice (Beijing animal center, Beijing, China) were used. VEGE-D-LL/2 cells (1 × 10^6) were injected intramuscularly and subcutaneously in hind limb of mice. The mice were randomized into 5 groups (n = 10 per groups) and orally administered 37.5, 75 and 150 mg/kg/day YL529, vehicle and saline alone (N.S.), respectively for 14 days when tumors became visible the 10th day after cells were implanted. Tumor growth and mice weight was monitored every 3 days. When animals were sacrificed with CO2 gas at the end of drug administration, tumor tissues, lung organs and local lymph nodes were removed, weighted and calculated by manual. Tumor size was determined by measuring the largest and perpendicular diameters every 3 days, tumor volume was calculated using the formula: volume (mm^3) = 0.5 × length × width^2. In addition, the same subcutaneously tumor models were used to monitor the survival time of experimental mice after drug administration. All animals experiments performed were in accordance with the guidelines of the institute’s Animal Care and Use Committee of Sichuan University (Chengdu, China).
(§4) Tumor tissues from vehicle and 150 mg/kg YL529 groups were fixed in 4 % paraformaldehyde, dehydrated and embedded in paraffin [27]. Sections of these tissues were subsequently incubated with LYVE-1 and corresponding second antibodies and visualized using peroxidase-DAB. TUNEL staining was also performed for fixed tissues (Promega, USA). Quantification was done as described. Briefly, the microvessel counting was done in representative 200× fields or three high-power (400×) fields of the highest vascular density.
(§5) Based on the safety profile and the in vivo pharmacokinetics of YL529, chronic oral administration of YL529 at daily dosages of 37.5 ~ 150 mg/kg/day was chosen to treat the mice with VEGF-D-LL/2 tumors (syngeneic s.c. and muscle models).

HLECs [7] = experiment: scratch-induced (wound healing) migration assay; format: cell-based; settings: Homo sapiens, read-out: inhibition of cell migration
Experimental: The anti-metastasis effect of YL529 was determined using a scratch-induced cell migration assay in vitro [24, 25]. Briefly, 1 × 10^5 HLECs were plated in 6 well plates and synchronized by serum-free ECM medium for 8 h, then used a micropipette tip to create a 2 mm-wide linear gap. Cells were washed to remove non-adherent cells and further incubated with fresh ECM medium containing or lacking YL529. An inverted microscope (Carl Zeiss, Germany) was used to photograph after YL529 treatment for another 48 h.
We next examined the effects of YL529 on HLECs migration using a wound healing migration assay.

VEGFR-3 = settings: 10 μM; cited from earlier work
p-VEGFR-3 = experiment: western blot of VEGFR-3/p-VEGFR-3 in HLECs; format: cell-based, human; settings: after 2 h of treatment
Experimental: (§6) Standard western blot analysis was performed. Briefly, Cell lysates were washed with phosphate buffered saline (PBS) and lysed in RIPA (radioimmunoprecipitation assay) buffer. Then lysates were centrifuged at 12000 g for 30 min at 4 °C. The Bio-Rad Protein Assay kit (Bio-Rad Laboratories) was used to determine the samples protein concentration according to the manufacturers’ recommendations. The lysates were dissolved in 5 × SDS sample buffer and denatured, then subjected to 6 % to 12 % SDS-PAGE (sodium dodecyl sulfate polyacrylamide gel electrophoresis) according to molecular weight and transferred onto PVDF (polyvinylidene fluoride) (Bio-Rad, Hercules, CA) membranes. Membranes were blocked for 1 h in 5 % dried milk in TBS/T at room temperature and incubated overnight at 4 °C with the primary antibodies and horseradish peroxidase-conjugated secondary antibodies. Protein bands were visualized with enhanced chemiluminescent substrate (Amersham Biosciences Corp., Piscataway, NJ).
To gain in-depth insight into the molecular mechanism of anti-lymphangiogenesis effects of YL529, the expression levels of VEGFR-3/p-VEGFR-3 in HLECs were analyzed by western blotting in vitro.

VEGF-D-LL/2 cells [8] = experiment: western blot of p-JNK, Bax, Bcl-2 in VEGF-D-LL/2 cells; format: cell-based, murine
Experimental: as §6

safety profile in mice = format: in vivo; settings: 150 mg/kg daily for 18 days
Experimental: To evaluate the safety profile of YL529 (150 mg/kg) in vivo, we have observed the gross measures such as weight loss, life span, behavior and feedings. Moreover, we have also investigated the mortality and clinical signs of C57BL/6 mice throughout oral administration period. In addition, blood samples and heart, liver, spleen, lung, and kidney tissues of mice were collected; the histopathological, serum biochemistry and hematological analysis were done to observe the possible pathological changes. In addition, we also evaluated the safety profiles of YL529 after oral administration with high dose (6000 mg/kg) for 14 days.
Currently, side effects are the prevalent shortcomings of anticancer drugs.

VEGFR2 = settings: 10 μM; cited from earlier work
VEGF-D-LL/2 tumors [9] = experiment: VEGF-D-LL/2 syngeneic muscle tumor metastasis model; format: in vivo, C57 BL/6 mice; settings: for percent of mice with local lymph node metastasis: vehicle 80 % ~ 90 %
Experimental: as §3, §4, §5

VEGF-D-LL/2 cells [10] = experiment: CCK-8 cell viability assay; format: cell-based, murine; settings: Mus musculus, 48 h, read-out: IC50, proliferation of VEGF-D-LL/2 cells
Experimental: The transfected murine LL/2 Lewis lung carcinoma cells with the pcDNA3.1 (+) expression vector containing mouse VEGF-D (VEGF-D-LL/2 cells) or pcDNA3.1 (vector alone) were transfected as reported before obtained in our laboratory. The cell lines were maintained in an atmosphere of 5 % CO2 at 37 °C in cell culture medium DMEM supplemented with 10 % fetal bovine serum. Western blot analysis was performed to analyze the expression of recombinant VEGF-D of these cells.
as §1, §2

[11] = C57 BL/6, mouse, plasma, single dose 150 mg/kg

Compound `CNC(=O)c1cc(Oc2ccc(NC(=O)c3cccc(C(F)(F)F)c3)cc2)ccn1` [YL529, N-methyl-4-(4-(3-(trifluoromethyl)benzamido)phenoxy)picolinamide4-methylbenzenesulfonate] has an inhibition at 2.5 µM (HLECs [1]; 2.5 μM, compared with vehicle) of 28%, an inhibition at 5 µM (HLECs [1]; 5 μM) of 65.9% and an inhibition at 10 µM (HLECs [1]; 10 μM) of 90.2%. For the same compound, the inhibition at 10 µM (HLECs [2]) was 85.7%, the IC50 (HLECs [3]) was 5.5 µM and the Cmax ([4]; C57 BL/6, mouse, plasma, 150 mg/kg, read-out: peak plasma concentration (Cmax)) was 18000 ng/mL. The half-life ([4]; C57 BL/6, mouse, plasma, 150 mg/kg, single dose 150 mg/kg, read-out: t1/2z (converted)) was 4.11 h, the half-life ([4]; C57 BL/6, mouse, plasma, 150 mg/kg, single dose 150 mg/kg, read-out: t1/2β (converted)) was 6.03 h and the AUC(0-inf) [4, 11] was 171 µg·h/mL. The AUC(0-t) [4, 11] was 167 µg·h/mL, the Tmax [4, 11] was 2 h and the Cmax ([4]; single dose 150 mg/kg) was 18030 ng/mL. For the same compound, the T1/2α ([4]; single dose 150 mg/kg) was 1.39 h, the IC50 (parental LL/2 cells) was 9.6 µM and the “weight changes of major organs (heart, liver, spleen, lung, kidney and brain)” value ([5]; 6000 mg/kg daily for 14 days) was “no obvious weight changes”. For the same compound, the Heart index ([5]; female) was 0.42 ± 0.09%, the Kidney index ([5]; female) was 0.38 ± 0.09% and the Liver index ([5]; female) was 3.13 ± 0.09%. The Lung index ([5]; female) was 0.43 ± 0.06%, the Spleen index ([5]; female) was 0.25 ± 0.03% and the Heart index ([5]; male) was 0.42 ± 0.06%. It also gave a Kidney index ([5]; male) of 0.38 ± 0.09%, a Liver index ([5]; male) of 3.09 ± 0.13% and a Lung index ([5]; male) of 0.42 ± 0.09%. The Spleen index ([5]; male) was 0.24 ± 0.04%, the “apoptotic tumor cells (TUNEL), increase vs. vehicle” value (VEGF-D-LL/2 tumors [6]; 150 mg/kg) was 20 fold and the “mice survived to 54 days” value (VEGF-D-LL/2 tumors [6]; 150 mg/kg group) was 60%. The “mice survived to 40 days” value (VEGF-D-LL/2 tumors [6]; YL529 treated groups) was 90%, the body weight (VEGF-D-LL/2 tumors [6]; at this dosage) was “no loss of body weight” and the tumor volume reduction (VEGF-D-LL/2 tumors [6]; compared with vehicle-treated group, oral, dose not given) was 66.22%. It also gave an inhibition at 2.5 µM (HLECs [7]; 2.5 μM) of 44.3%, an inhibition at 5 µM (HLECs [7]; 5 μM) of 66.8% and an inhibition at 10 µM (HLECs [7]; 10 μM) of 79.8%. The “inhibition of VEGFR-3 activity” value (VEGFR-3) was 97%, the “phosphorylation of VEGFR-3” value (p-VEGFR-3) was “potently inhibited” and the “total expression of VEGFR-3” value (p-VEGFR-3) was “no change”. The “expression level of Bcl-2” value (VEGF-D-LL/2 cells [8]) was “increased”, the “expression level of p-JNK” value (VEGF-D-LL/2 cells [8]) was “decreased” and the “body weight loss or tissue damage” value (safety profile in mice) was “no obvious body weight loss or tissue damage”. For the same compound, the “inhibition of VEGFR2 activity” value (VEGFR2) was “inhibited VEGFR2 activity”, the “number of mice with lung metastasis and inguinal lymph node metastasis” value (VEGF-D-LL/2 tumors [9]) was “significantly reduced” and the “percent of mice with local lymph node metastasis” value (VEGF-D-LL/2 tumors [9]; 37.5 mg/kg group) was 50%. The “lymphangiogenesis in tumor tissues (LYVE-1 staining), change vs vehicle group” value (VEGF-D-LL/2 tumors [9]; 150 mg/kg for 14 days) was 34.71%, the “percent of mice with local lymph node metastasis” value (VEGF-D-LL/2 tumors [9]; 150 mg/kg group) was 20% and the body weight (VEGF-D-LL/2 tumors [9]; end of drug administration) was “no loss of body weight”. The IC50 (VEGF-D-LL/2 cells [10]) was 7.2 µM.
